Measured values taken from the supplement of paper PMC10307832.

How the values were obtained:
Experiment in all cases: relative viability (nuclei count vs DMSO), 5 days (fraction); higher = more cells survive
[1] = compound: CCN(CCO)CCCC(C)Nc1ccnc2cc(Cl)ccc12 [Hydroxychloroquine] + Cc1nc(NC(=O)N2CCC[C@H]2C(N)=O)sc1-c1ccnc(C(C)(C)C(F)(F)F)c1 [Alpelisib] (partner 2 µM)
Method in brief: (§1)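 A single step with final 0.05% Triton X-100, 1% formaldehyde and 1 ug/ml Hoechst fixed the cells and stained nuclei 5 days after treatment. Lung cancer cell lines in 1536-well plates had been treated by pin tool the day after seeding with one drug alone or a fixed anchor-drug dose plus five library-drug doses (not always all listed) in √10 steps, and nuclei were counted on 4× images. Relative viability is the ratio of nuclei in treated wells to nuclei in vehicle wells, taken as the median of duplicate plates.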

[2] = compound: CCN(CCO)CCCC(C)Nc1ccnc2cc(Cl)ccc12 [Hydroxychloroquine] + CC(C)C[C@H](NC(=O)[C@H](Cc1ccccc1)NC(=O)c1cnccn1)B(O)O [Bortezomib] (partner 0.002 µM)
Method in brief: as §1

[3] = compound: CCN(CCO)CCCC(C)Nc1ccnc2cc(Cl)ccc12 [Hydroxychloroquine] + O=C(c1cc(Cc2n[nH]c(=O)c3ccccc23)ccc1F)N1CCN(C(=O)C2CC2)CC1 [Olaparib] (partner 8 µM)
Method in brief: as §1

[4] = compound: CCN(CCO)CCCC(C)Nc1ccnc2cc(Cl)ccc12 [Hydroxychloroquine] + Nc1nc2[nH]cc(CCc3ccc(C(=O)N[C@@H](CCC(=O)O)C(=O)O)cc3)c2c(=O)[nH]1 [Pemetrexed] (partner 0.2 µM)
Method in brief: as §1

Cell Line | relative viability ([1]; first compound 0.5 µM) | relative viability ([1]; first compound 1.581 µM) | relative viability ([1]; first compound 5 µM) | relative viability ([1]; first compound 15.81 µM) | relative viability ([1]; first compound 50 µM) | relative viability ([2]; first compound 0.5 µM) | relative viability ([2]; first compound 1.581 µM) | relative viability ([2]; first compound 5 µM) | relative viability ([2]; first compound 15.81 µM) | relative viability ([2]; first compound 50 µM) | relative viability ([3]; first compound 0.5 µM) | relative viability ([3]; first compound 1.581 µM) | relative viability ([3]; first compound 5 µM) | relative viability ([3]; first compound 15.81 µM) | relative viability ([3]; first compound 50 µM) | relative viability ([4]; first compound 0.5 µM) | relative viability ([4]; first compound 1.581 µM) | relative viability ([4]; first compound 5 µM) | relative viability ([4]; first compound 15.81 µM) | relative viability ([4]; first compound 50 µM)
LCLC-97TM1 | 0.286 | 0.223 | 0.262 | 0.244 | 0.286 | 0.453 | 0.764 | 0.483 | 0.523 | 0.529 | 0.529 | 0.371 | 0.324 | 0.453 | 0.29 | 0.199 | 0.226 | 0.169 | 0.179 | 0.175
LCLC-103H | 1.02 | 0.907 | 0.965 | 0.888 | 0.953 | 1.13 | 0.837 | 1.04 | 1.15 | 1.06 | 0.754 | 0.688 | 0.84 | 0.766 | 0.78 | 0.439 | 0.504 | 0.368 | 0.455 | 0.473
LOU-NH91 | 0.697 | 0.617 | 0.741 | 0.745 | 0.758 | 0.467 | 0.507 | 0.492 | 0.475 | 0.539 | 0.945 | 0.846 | 0.888 | 0.869 | 0.961 | 0.359 | 0.413 | 0.451 | 0.386 | 0.427
LU99A | 0.481 | 0.364 | 0.534 | 0.498 | 0.619 | 1.11 | 1.02 | 1.11 | 1.08 | 1.26 | 0.261 | 0.265 | 0.228 | 0.299 | 0.254 | 0.179 | 0.194 | 0.157 | 0.198 | 0.206
LXF-289 | 1 | 1 | 1.06 | 1.03 | 1.11 | 1.02 | 1.01 | 0.939 | 1.01 | 1 | 1.07 | 1.06 | 1.07 | 1.15 | 1.16 | 0.886 | 0.908 | 0.92 | 0.929 | 0.927
NCI-H23 | 0.863 | 0.725 | 0.701 | 0.609 | 0.57 | 1.15 | 1.14 | 0.884 | 1.02 | 0.881 | 0.365 | 0.36 | 0.322 | 0.309 | 0.204 | 1.21 | 0.663 | 0.609 | 0.56 | 0.74
NCI-H322M | 0.864 | 0.814 | 0.864 | 0.758 | 0.769 | 1.31 | 1.27 | 1.16 | 1.36 | 1.2 | 0.741 | 0.75 | 0.753 | 0.725 | 0.751 | 0.639 | 0.609 | 0.601 | 0.608 | 0.592
NCI-H441 |  | 0.627 | 0.816 | 0.746 | 0.625 |  | 0.426 | 0.453 | 0.552 | 0.77 | 0.543 | 0.551 | 0.498 | 0.547 | 0.553 | 0.234 | 0.258 | 0.284 | 0.227 | 0.278
NCI-H460 | 0.609 | 0.428 | 0.439 | 0.421 | 0.52 | 1.08 | 1.05 | 1.1 | 1.39 | 1.36 | 0.409 | 0.431 | 0.387 | 0.479 | 0.334 | 0.0632 | 0.055 | 0.0674 | 0.0549 | 0.0607
NCI-H520 | 1.04 | 0.776 | 0.901 | 0.999 | 0.89 | 0.639 | 0.606 | 0.662 | 0.658 | 0.511 | 0.344 | 0.354 | 0.304 | 0.337 | 0.364 | 0.76 | 0.729 | 0.596 | 0.657 | 0.798
NCI-H596 | 0.461 | 0.463 | 0.546 | 0.606 | 0.492 | 1.04 | 0.857 | 0.847 | 0.999 | 1.19 | 0.668 | 0.711 | 0.77 | 0.716 | 0.604 | 0.547 | 0.481 | 0.45 | 0.479 | 0.489
NCI-H647 | 1.12 | 1.06 | 1.1 | 1.02 | 1.13 | 1.07 | 1.19 | 0.876 | 1.15 | 0.813 | 0.521 | 0.531 | 0.591 | 0.626 | 0.602 | 0.186 | 0.176 | 0.202 | 0.196 | 0.182
NCI-H650 | 1.08 | 1.17 |  | 1.1 | 1.17 | 0.911 | 0.759 |  | 0.901 | 0.748 | 0.423 | 0.364 | 0.326 | 0.374 | 0.315 | 0.979 | 0.868 | 0.966 | 1.06 | 0.889
NCI-H661 | 0.665 | 0.567 | 0.795 | 0.547 | 0.481 | 0.795 | 0.719 | 0.652 | 0.761 | 0.825 | 0.782 | 0.695 | 0.743 | 0.684 | 0.69 | 0.962 | 0.904 | 0.91 | 0.877 | 0.872
NCI-H838 | 1.04 | 0.946 | 0.983 | 1.04 | 1.08 | 0.9 | 0.819 | 0.663 | 0.79 | 0.805 | 0.783 | 0.801 | 0.804 | 0.803 | 0.809 | 0.238 | 0.248 | 0.264 | 0.243 | 0.253
NCI-H1355 | 0.81 | 0.744 | 0.837 | 0.833 | 0.86 | 1.24 | 1.19 | 1.09 | 1.12 | 1.25 | 0.796 | 0.685 | 0.661 | 0.709 | 0.782 | 1.11 | 0.997 | 0.906 | 1.05 | 1.14
NCI-H1437 | 0.909 | 0.926 | 1.05 | 1 | 1.05 | 0.516 | 0.737 | 0.505 | 0.483 | 0.446 | 0.604 | 0.665 | 0.65 | 0.653 | 0.652 | 0.326 | 0.314 | 0.324 | 0.33 | 0.321
NCI-H1651 | 0.963 | 0.926 | 1.05 | 1.04 | 0.989 | 0.947 | 0.932 | 0.866 | 0.982 | 0.943 | 0.178 | 0.193 | 0.191 | 0.18 | 0.197 | 0.628 | 0.626 | 0.602 | 0.597 | 0.449
NCI-H1666 | 0.99 | 0.996 | 0.873 | 0.882 | 0.668 | 0.907 | 0.658 | 0.652 | 0.714 | 0.772 | 0.669 | 0.727 | 0.719 | 0.749 | 0.693 | 0.878 | 0.765 | 0.846 | 0.755 | 0.844
NCI-H1734 | 0.674 | 0.696 | 0.362 | 0.781 | 0.668 | 0.98 | 0.918 | 1.03 | 0.918 | 1.01 | 0.525 | 0.601 | 0.626 | 0.616 | 0.635 | 0.46 | 0.398 | 0.408 | 0.427 | 0.427
NCI-H1755 | 0.925 | 0.877 | 0.908 | 0.956 | 0.911 | 0.955 | 0.868 | 0.918 | 0.927 | 0.953 | 0.861 | 0.841 | 0.841 | 0.912 | 0.827 | 0.573 | 0.426 | 0.42 | 0.386 | 0.438
NCI-H1792 | 0.677 | 0.698 | 0.65 | 0.392 | 0.664 | 0.979 | 0.955 | 1.02 | 1.05 | 1.17 | 0.461 | 0.413 | 0.195 | 0.439 | 0.433 | 0.694 | 0.831 | 0.755 | 0.641 | 0.859
NCI-H1915 | 1.03 | 1.08 | 1.06 | 1.13 | 1.07 | 1.07 | 0.953 | 1.02 | 0.923 | 1.03 | 0.244 | 0.243 | 0.262 | 0.275 | 0.265 | 0.531 | 0.514 | 0.505 | 0.524 | 0.521
NCI-H1975 | 0.642 | 0.668 | 0.631 | 0.697 | 0.75 | 0.343 | 0.333 | 0.342 | 0.379 | 0.354 | 0.816 | 0.767 | 0.856 | 0.85 | 0.911 | 0.281 | 0.325 | 0.309 | 0.297 | 0.301
NCI-H1993 | 0.632 | 0.712 | 0.789 | 0.71 | 0.692 | 1.01 | 0.884 | 1.04 | 1.13 | 1.03 | 1.24 | 1.04 | 1.14 | 0.61 | 1.11 | 0.577 | 0.507 | 0.623 | 0.601 | 0.597
NCI-H2009 | 1.19 | 1.24 | 1.26 | 1.17 | 1.09 | 1.02 | 1.04 | 0.956 | 0.963 | 1.07 | 0.672 | 0.72 | 0.7 | 0.698 | 0.695 | 1.07 | 0.991 | 1.02 | 1.07 | 1.01
NCI-H2023 | 0.547 | 0.47 | 0.636 | 0.605 | 0.601 | 1.06 | 0.942 | 1.01 | 0.964 | 1.03 | 0.566 | 0.405 | 0.501 | 0.479 | 0.466 | 0.267 | 0.22 | 0.246 | 0.238 | 0.295
